Results taken from PubChem BioAssay (NCI).
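Protocol summary: plate cells (96-well), add compound at 5 concentrations, incubate 48 h, interpolate endpoints linearly. At the GI50, growth is halved. TGI: concentration producing complete growth inhibition.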

Tests used:
Experiment in all cases: NCI-60 cell line screen, 48 h
[1] = tested on: MCF7 breast
[2] = tested on: SF-268 CNS
[3] = tested on: NCI-H460 lung
[4] = tested on: SK-MEL-2 melanoma
[5] = tested on: HCT-116 colon
[6] = tested on: NCI-H23 lung
[7] = tested on: HCC-2998 colon
[8] = tested on: 786-0 renal
[9] = tested on: MOLT-4 leukemia
[10] = tested on: OVCAR-8 ovarian

| Compound | GI50 [1] [µM] | TGI [1] [µM] | GI50 [2] [µM] | TGI [2] [µM] | GI50 [3] [µM] | TGI [3] [µM] | GI50 [4] [µM] | TGI [4] [µM] | GI50 [5] [µM] | TGI [5] [µM] | GI50 [6] [µM] | TGI [6] [µM] | GI50 [7] [µM] | TGI [7] [µM] | GI50 [8] [µM] | TGI [8] [µM] | GI50 [9] [µM] | TGI [9] [µM] | GI50 [10] [µM] | TGI [10] [µM] |
| --- | --- | --- | --- | --- | --- | --- | --- | --- | --- | --- | --- | --- | --- | --- | --- | --- | --- | --- | --- | --- |
| Cc1cc(C)c(C#N)c(Sc2nc(C)c([N+](=O)[O-])c(C)c2C#N)n1 | 3.11 | 11.6 | 3.26 | 11.8 | 3.63 | 16.2 | 2.21 | 5.86 | 1.94 | 4.18 | 2.87 | 10.4 | 4.66 | 15.8 | 5.04 | 17.9 | 3.03 | > 100 | 3.03 | 10.5 |
| C1CN(c2nnc(N3CCC3)nn2)C1 | – | > 72.2 | – | > 100 | – | > 100 | – | > 89.5 | – | > 100 | – | 79.7 | – | > 100 | – | 49.5 | – | > 100 | – | > 100 |
| COc1cc(C2C3=C(COC3=O)N(CCO)c3cc4c(cc32)OCCO4)cc(OC)c1OC (stereo not drawn) | 0.192 | > 50 | 0.374 | > 50 | 0.208 | 1.68 | 0.173 | 4.55 | 0.178 | – | 0.203 | – | 0.127 | 0.335 | 0.369 | > 50 | 0.242 | > 11.4 | 0.24 | > 50 |
| COc1cccc2cc(N(C)c3nc(C)nc4c3CCC4)ccc12 | < 0.01 | 14.6 | < 0.01 | 15.6 | < 0.01 | 12.4 | < 0.01 | 14.2 | < 0.01 | 10.4 | < 0.01 | 18 | < 0.01 | 14 | < 0.01 | 14.4 | < 0.01 | 16.1 | < 0.01 | 19.2 |
| CCN(CC)CCCC(C)Nc1cc(-c2cccc(OC(F)(F)F)c2)nc2ccc(N3CCCC3)cc12 (stereo not drawn) | 0.0353 | 22.5 | 0.196 | 19.8 | 0.0377 | 3.66 | 0.598 | 27 | 0.0371 | 13.7 | 0.161 | > 64 | 0.224 | 2.98 | 0.158 | 26.1 | 0.306 | > 100 | 0.0626 | 34.3 |
| O=C(NCC(F)(F)F)Nc1cccc(-c2cnc3cc(-c4ccc(F)cc4)ccn23)c1 | 0.586 | 18.5 | 2.8 | > 100 | 0.491 | > 100 | 0.477 | 12 | 0.539 | 14.7 | 1.65 | 20.8 | 1.95 | 49.4 | 2.26 | > 100 | 0.681 | > 29 | 2.83 | 33.6 |
| COc1ccc(-c2nc(-c3nc4ccc(C)cc4[nH]3)cc3c2[nH]c2ccccc23)cc1 | 3.06 | 56.3 | 6.8 | > 100 | 2.99 | > 100 | 3.11 | 9.22 | 3.55 | 40.6 | 5.36 | > 100 | 7.61 | > 100 | 19.3 | > 100 | 2.31 | 10 | 3.02 | > 100 |
| O=C1/C(=C/c2ccc(F)cc2)CN(C(=O)CCN2CCC(=NO)CC2)C/C1=C\c1ccc(F)cc1 | 0.768 | 4.59 | 2.02 | 5.46 | 2.02 | 5.17 | 4.07 | 12.4 | 0.413 | 0.861 | 1.92 | 4.47 | 1.5 | 3.08 | 1.48 | 3.45 | 0.699 | 7.97 | 1.3 | 5.58 |
| COc1ccc(-c2cncn2-c2cc(OC)c(OC)c(OC)c2)cc1 | – | > 34.8 | 2.01 | 59.7 | 0.367 | > 84.6 | 0.045 | > 100 | – | 4.78 | 0.659 | > 43.7 | 0.0779 | 1.37 | 0.115 | 43.7 | 1.87 | > 77 | 1.07 | > 51.3 |
| CSc1nc2nc3c(nc2c(=O)n1C)C(=O)c1ccccc1C3=O | 0.162 | 0.384 | 0.294 | 1.09 | 0.101 | 0.393 | 0.207 | 0.471 | 0.149 | 1.13 | 0.142 | 0.422 | 0.275 | 0.855 | 0.402 | 1.46 | 0.227 | 0.581 | 0.225 | 0.834 |
| CC(C)N(Cc1ccc(CN(C(=O)CCl)C(C)C)cc1)C(=O)CCl | 1.7 | 12.1 | 1.66 | 3.49 | 1.98 | 4.74 | 2.36 | 5.88 | 1.65 | 5.62 | 1.1 | 3.6 | 2 | 3.94 | 0.351 | 1.3 | 2.33 | 8.13 | 2.08 | 6.43 |
| O=C(CN(/C=C/C(=O)C(F)(F)F)c1ccc(Cl)cc1)c1ccc(Cl)c(Cl)c1 | 3.42 | 16.6 | 4.13 | 16.4 | 3.18 | 9.36 | 7.15 | 20.7 | 3.54 | 13.2 | 6.1 | 19.2 | 12.6 | 26.2 | 11.5 | 24.5 | 2.57 | 10.5 | 10.7 | 28.8 |
| O=C(/C=C/C=C/c1ccccc1)c1ccco1 | 1.24 | 21.6 | 18.2 | 41.1 | 21 | 47.5 | 18.8 | 37.3 | 12.2 | 25.1 | 15 | 30.4 | 15 | 28.3 | 15.2 | 32.5 | 1.92 | 21.5 | 27.1 | > 100 |
| COc1cc(OC)cc(C2C3=C(COC3=O)Nc3cc(OC)ccc32)c1 (stereo not drawn) | < 0.01 | 19.9 | < 0.0106 | > 61.8 | < 0.01 | 0.495 | 0.335 | > 100 | < 0.01 | 0.413 | < 0.01 | > 43.7 | < 0.01 | – | 0.0203 | 30.9 | < 0.01 | – | < 0.0143 | > 37.5 |
| Cc1ccc(-c2nc(/C=N/Nc3cc(C)nc4ccc(Cl)cc34)c(C)o2)cc1 | 1.63 | 3.2 | – | – | 1.93 | 3.79 | 2.01 | 4.11 | 1.79 | 3.23 | 2.17 | 4.48 | 2.07 | 3.77 | 1.42 | 2.76 | 2.02 | 4.88 | 1.65 | 4.13 |
| O=C(NNc1ccc(Cl)cc1)C1CCC(CNS(=O)(=O)c2ccccc2Cl)CC1 (stereo not drawn) | 4.88 | > 100 | 8.31 | > 100 | 14.3 | > 100 | 30.9 | > 100 | – | – | 15 | 50.6 | 1.48 | 13.8 | 13.7 | 34 | 74.4 | > 100 | 21.6 | > 100 |
| C#CC1=CC(=O)C(OC)=CC1=O | – | 35.8 | – | > 100 | – | > 100 | – | 33.7 | – | 40 | – | 60 | – | 81.5 | – | 20.1 | – | > 100 | – | – |
| COc1ccc(/C=C/c2c(C(=O)/C=C/c3ccc(C(F)(F)F)cc3)c(C)nc3ccccc23)cc1 | 1 | 3.4 | 1.8 | 3.67 | 1.87 | 4.22 | 2.05 | 4.64 | 0.414 | 1.97 | – | – | 1.51 | 3.07 | 1.61 | 3.02 | 1.04 | > 100 | 2.22 | > 100 |
| CCCCCCSSC(=S)N(CC)CC | 13.9 | 30.8 | 33.5 | > 100 | – | – | 25 | 58.7 | 14.4 | 28.5 | 27.8 | 92.8 | 29.7 | 91.5 | 20.4 | 39.4 | 17.7 | 44.5 | 20 | 46.6 |
| O=C(Nc1ccccc1I(=O)=O)C1CCCCC1 | > 100 | > 100 | > 100 | > 100 | > 100 | > 100 | > 100 | > 100 | – | – | > 100 | > 100 | > 100 | > 100 | > 100 | > 100 | 98.5 | > 100 | > 100 | > 100 |
